Test results taken from patent US20070202547A1, “Methods For Detecting Substances Which Bind To The Amyloid Precursor Protein Or Beta Amyloid Fragments, And Binding Compounds” (priority 2004, published 2007).

Biological target: BACE 1 (Homo sapiens, UniProt P05067)
Experiment: Western blot of BACE 1 cleavage of APP variant
Format: biochemical
Settings: bacterially expressed APP variant, BACE 1 protein, 1 h at 37° C.; read-out: IC50, inhibition of BACE cleavage of APP (densitometric quantitation of Western blot)
Experimental: A bacterially expressed APP variant containing an enhanced BACE cleavage sequence was incubated with Example 2 and BACE 1 protein for 1 h at 37° C. to conduct a Western blot analysis. The reaction was run on a gel and blotted. The BACE-specific cleavage product was detected using an antibody specifically recognizing the N-terminal product arising after BACE cleavage.
FIG. 2(A) depicts the Western blot.

Chain of BACE 1 (P05067 whole entry K670N/M671F/D672E/A673V, form open): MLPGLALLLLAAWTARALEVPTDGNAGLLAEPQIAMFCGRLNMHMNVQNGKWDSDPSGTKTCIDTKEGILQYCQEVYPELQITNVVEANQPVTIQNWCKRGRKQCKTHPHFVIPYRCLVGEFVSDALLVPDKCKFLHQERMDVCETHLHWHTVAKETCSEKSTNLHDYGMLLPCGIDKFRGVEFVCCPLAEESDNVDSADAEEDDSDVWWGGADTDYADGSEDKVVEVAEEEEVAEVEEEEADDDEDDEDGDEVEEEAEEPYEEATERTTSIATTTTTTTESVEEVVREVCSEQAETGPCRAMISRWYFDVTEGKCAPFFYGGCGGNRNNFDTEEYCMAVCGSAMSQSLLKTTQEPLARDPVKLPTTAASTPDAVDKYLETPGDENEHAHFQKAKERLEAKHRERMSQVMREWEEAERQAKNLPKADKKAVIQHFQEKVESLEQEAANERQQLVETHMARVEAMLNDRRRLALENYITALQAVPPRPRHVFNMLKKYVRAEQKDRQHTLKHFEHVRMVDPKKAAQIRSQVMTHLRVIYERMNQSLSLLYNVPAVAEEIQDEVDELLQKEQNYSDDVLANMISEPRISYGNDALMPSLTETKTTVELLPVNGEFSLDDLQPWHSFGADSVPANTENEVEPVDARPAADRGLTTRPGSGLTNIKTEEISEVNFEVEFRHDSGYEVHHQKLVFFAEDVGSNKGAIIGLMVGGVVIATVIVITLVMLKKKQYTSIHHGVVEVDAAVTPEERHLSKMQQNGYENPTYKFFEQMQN

In the case of `O=C(O)COc1cc2c(cc1CCCOc1ccccc1Cl)OC(CCc1ccccc1)C2` (stereo not shown) [Example 2, {[6-[3-(2chlorophenoxy)propyl)-2-(2-phenylethyl)-2,3-dihydro-1-benzofuran-5-yl]oxy} acetic], the IC50 is reported as 11 µM.
